For series [1] the following is noted: pKa value of the amine; cited from earlier work.

A word on the pKa: it is the pH at which an ionisable group is half protonated. In general, melting point refers to the temperature of the solid-liquid transition.

Regarding `N#Cc1ccc(N)cc1` [4-Cyanoaniline], the pKa in series [1] is 1.7.
Take `COc1ccc(N)cc1` [4-Methoxyaniline]: the pKa in series [1] is on record as 5.4.
Regarding `Nc1ccccc1[N+](=O)[O-]` [2-Nitroaniline], in series [1], the pKa is listed as −0.23.
For the compound `Nc1cccc([N+](=O)[O-])c1` [3-Nitroaniline], in series [1], the pKa was 2.5.
As for `COC(=O)c1ccc(N)cc1` [Methyl 4-aminobenzoate], in series [1], the pKa is recorded as 1.5.
`O=C1COCCN1c1ccc([N+](=O)[O-])cc1` [Example 1, 4-(4-Nitrophenyl)-3-oxomorpholine] had a melting point of 150 to 152 °C.
For `Nc1ccc(C(=O)c2ccccc2)cc1` [4-Aminobenzophenone], the pKa in series [1] is on record as 2.2.
As for `NCc1ccccc1` [Benzylamine], the pKa in series [1] is listed as 9.5.
In the case of `Cc1cc([N+](=O)[O-])ccc1N` [2-Methyl-4-nitroaniline], the pKa in series [1] was 1.04.
